Experiments:
[1] = tested on: rat mesangial cells; assay: Proline incorporation assay: reduction of TGF-beta 1 stimulated proline incorporation; assay type: cell-based; conditions: Mesangial cell, 44 h, TGF-beta 1 5 ng/mL, read-out: Percentage Reduction of TGF-Beta 1 Stimulated Proline Incorporation; for inhibition at 10 µM: 10 μM compound; for inhibition at 30 µM: 30 μM compound; for inhibition at 100 µM: 100 μM compound
Procedure: (§1) A well-characterised cloned rat mesangial cell line (Kakizaki Y, Kraft N, Atkins R C: Differential control of mesangial cell proliferation by interferon-gamma. Clin Exp Immunol 85:157-163, 1991) was cultured in DMEM (5 mM glucose) with 5% FBS, 100U/mL penicillin, and 100 ug/mL streptomycin in humidified 5% CO2 atmosphere at 37 C. Cells were used up to passage 40.
Proline Incorporation Assay
(§2) Cells were plated into 24-well culture dishes in DMEM/5% FBS and allowed to adhere overnight. The subconfluent cells were then starved overnight in DMEM/0.1% FBS and 150 uM L-ascorbic acid, prior to pre-treatment with or without FibroTech compounds for 4 hours at 10, 30 or 100 uM in 0.1% DMSO, final concentration. TGF-beta 1 at 5 ng/mL (Peprotech) and tritiated proline (Perkin-Elmer, (2,3,4,5-^3H)-proline) at 1 uCi/mL were added and the incubation continued for a further 44 hours. Treatments were performed in triplicate.
After the incubation, cells were placed on ice and washed three times with ice cold PBS. They were then incubated on ice with 10% TCA for 30 minutes, followed by a final wash in cold 10% TCA. The cells were solubilized in 0.75 mL of 1M NaOH at 37 C for 45 minutes, or overnight at 4 C. Aliquots of the solubilized cells were neutralized in an equal amount of 1M HCl and counted in scintillant in a beta counter. Aliquots of neutralized solubilized cells were assayed for protein using the BioRad Bradford Protein Assay. Proline incorporation was normalized for protein content (cpm ^3H-proline incorporated per ug protein).
In order to compare the results of experiments performed on different days, the percentage inhibition of proline incorporation was calculated for each treatment by setting the TGF treatment at 0% inhibition and the control (incubation with media alone) at 100% inhibition.
Percentage Reduction of TGF-Beta 1 Stimulated Proline Incorporation: […]

[2] = tested on: rat mesangial cells; assay: Toxicity rank and cell condition observed in the proline incorporation assay; assay type: cell-based; set-up: key to Tox. Rank (4 = non-toxic): (4 = non-toxic); conditions: for Cell condition observed (sick, dead): 30 μM; for Cell condition observed (sick, dead, some death, cells elongated): 100 μM
Procedure: as §1, §2

[3] = Compound precipitation observed during the proline incorporation assay; assay type: physicochemical; set-up: key: ppt indicates compound precipitated during assay
Procedure: as §2

## COc1ccc(/C=C/C2=NS(=O)(=O)c3ccccc3N2)cc1OC [FT98, (E)-3-[2-(3,4-Dimethoxyphenyl)ethenyl]-4H-1,2,4-benzothiadiazine-1,1-dioxide]
[1]
  inhibition at 10 µM: 30%
  inhibition at 30 µM: 70%
  inhibition at 100 µM: 70%
[2]; no concentration stated
  Tox. Rank (4 = non-toxic): 4
other
  melting point: 276 to 279 °C

## COc1ccc(/C=C/c2nc3ncccc3c(=O)o2)cc1OC [FT102, (E)-2-(3,4-Dimethoxystyryl)-4H-pyrido[2,3-d][1,3]oxazin-4-one]
[1]
  inhibition at 10 µM: 0%
  inhibition at 30 µM: 0%
  inhibition at 100 µM: 10%
[2]; no concentration stated
  Tox. Rank (4 = non-toxic): 4
[3]; 100 μM in 0.1% DMSO
  Compound precipitated during assay: ppt
other
  melting point: 228 to 231 °C

## COc1ccc(/C=C/c2nc3ccccc3c(=O)o2)cc1OC [FT106, (E)-2-(3,4-Dimethoxystyryl)-4H-benzo[d][1,3]oxazin-4-one]
[1]
  inhibition at 10 µM: 0%
  inhibition at 30 µM: 0%
[2]
  Cell condition observed (sick, dead): sick
  Cell condition observed (sick, dead, some death, cells elongated): dead
[2]; @30 uM
  Tox. Rank (4 = non-toxic): 2@30 uM
[2]; @100 uM
  Tox. Rank (4 = non-toxic): 1@100 uM

## C#CCOc1ccc(/C=C/c2nc3ccccc3c(=O)o2)cc1OC [FT107, (E)-2-(3-Methoxy-4-propargyloxystyryl)-4H-benzo[d][1,3]oxazin-4-one]
[1]
  inhibition at 10 µM: 0%
  inhibition at 30 µM: 0%
  inhibition at 100 µM: 0%
[2]; no concentration stated
  Tox. Rank (4 = non-toxic): 4
[3]; 100 μM in 0.1% DMSO
  Compound precipitated during assay: ppt
other
  melting point: 177 to 178 °C

## O=c1oc(/C=C/c2ccc(OC(F)F)c(OC(F)F)c2)nc2ccccc12 [FT108, (E)-2-(3,4-Bis(difluoromethoxy)styryl)-4H-benzo[d][1,3]oxazin-4-one]
[1]
  inhibition at 10 µM: 75%
  inhibition at 30 µM: 95%
  inhibition at 100 µM: > 100%
[2]; no concentration stated
  Tox. Rank (4 = non-toxic): 4
other
  melting point: 113 to 115 °C

## COc1cc(/C=C/c2nc3ccccc3c(=O)o2)ccc1OC(C)=O [FT109, (E)-2-(4-Acetoxy-3-methoxystyryl)-4H-benzo[d][1,3]oxazin-4-one]
[1]
  inhibition at 10 µM: 3%
  inhibition at 30 µM: 16%
  inhibition at 100 µM: 75%
[2]; no concentration stated
  Tox. Rank (4 = non-toxic): 4
[3]; 100 μM in 0.1% DMSO
  Compound precipitated during assay: ppt
other
  melting point: 185 to 186 °C

## COc1ccc(/C=C/c2nc3ccccc3c(=O)o2)cc1OC(C)=O [FT110, (E)-2-(3-Acetoxy-4-methoxystyryl)-4H-benzo[d][1,3]oxazin-4-one]
[1]
  inhibition at 10 µM: 0%
  inhibition at 30 µM: 0%
  inhibition at 100 µM: 0%
[2]
  Cell condition observed (sick, dead, some death, cells elongated): (cells elongated)
[2]; @100 uM
  Tox. Rank (4 = non-toxic): 3@100 uM
[3]; 100 μM in 0.1% DMSO
  Compound precipitated during assay: ppt

## COc1ccc(/C=C/C(=O)N2CCc3ccccc32)cc1OC [FT113, (E)-3-(3,4-dimethoxyphenyl)-1-(indolin-1-yl)prop-2-en-1-one]
[1]
  inhibition at 10 µM: 20%
  inhibition at 30 µM: 67%
  inhibition at 100 µM: 44%
[2]; no concentration stated
  Tox. Rank (4 = non-toxic): 4
other
  melting point: 118 to 120 °C

## COc1ccc(/C=C/c2nc3ccccc3[nH]2)cc1OC [FT121, (E)-2-(3,4-Dimethoxystyryl)-1H-benzo[d]imidazole]
[1]
  inhibition at 10 µM: ~60%
  inhibition at 30 µM: > 100%
[2]
  Cell condition observed (sick, dead, some death, cells elongated): dead
[2]; @30 uM
  Tox. Rank (4 = non-toxic): 3@30 uM
[2]; @100 uM
  Tox. Rank (4 = non-toxic): 1@100 uM

## COc1ccc(/C=C/C(=O)N2CCOc3ccccc32)cc1OC [FT122, (E)-1-(2,3-Dihydrobenzo[b][1,4]oxazin-4-yl)-3-(3,4-dimethoxyphenyl)prop-2-en-1-one]
[1]
  inhibition at 10 µM: ~25%
  inhibition at 30 µM: ~80%
[2]
  Cell condition observed (sick, dead, some death, cells elongated): dead
[2]; @30 uM
  Tox. Rank (4 = non-toxic): 4@30 uM
[2]; @100 uM
  Tox. Rank (4 = non-toxic): 1@100 uM

## COc1ccc(/C=C/C(=O)n2c(=O)n(C)c3ccccc32)cc1OC [FT123, (E)-1-(3-(3,4-Dimethoxyphenyl)acryloyl)-3-methyl-1H-benzo[d]imidazol-2(3H)-one]
[1]
  inhibition at 10 µM: 0%
  inhibition at 30 µM: 0%
  inhibition at 100 µM: 0%
[2]
  Cell condition observed (sick, dead): sick
  Cell condition observed (sick, dead, some death, cells elongated): dead
[2]; no concentration stated
  Tox. Rank (4 = non-toxic): 1 to 2
[3]; 30 μM in 0.1% DMSO
  Compound precipitated during assay: ppt
[3]; 100 μM in 0.1% DMSO
  Compound precipitated during assay: ppt

## COc1ccc(/C=C/C(=O)n2c(=O)oc3ccccc32)cc1OC [FT124, (E)-3-(3-(3,4-Dimethoxyphenyl)acryloyl)benzo[d]oxazol-2(3H)-one]
[1]
  inhibition at 10 µM: 0%
  inhibition at 30 µM: 0%
  inhibition at 100 µM: 0%
[2]
  Cell condition observed (sick, dead): sick
  Cell condition observed (sick, dead, some death, cells elongated): sick
[2]; no concentration stated
  Tox. Rank (4 = non-toxic): 2
[3]; 10 μM in 0.1% DMSO
  Compound precipitated during assay: ppt
[3]; 30 μM in 0.1% DMSO
  Compound precipitated during assay: ppt
[3]; 100 μM in 0.1% DMSO
  Compound precipitated during assay: ppt

## COc1ccc(/C=C/C(=O)N2CC(=O)Nc3ccccc32)cc1OC [FT125, (E)-4-(3-(3,4-Dimethoxyphenyl)acryloyl)-3,4-dihydroquinoxalin-2(1H)-one]
[1]
  inhibition at 10 µM: 0%
  inhibition at 30 µM: 0%
  inhibition at 100 µM: 0%
[2]
  Cell condition observed (sick, dead): sick
  Cell condition observed (sick, dead, some death, cells elongated): sick
[2]; no concentration stated
  Tox. Rank (4 = non-toxic): 2

## COc1cc2c(cc1OC)CC(C(=O)Nc1ccccc1C(=O)O)=C2 [FT126, 2-(5,6-Dimethoxy-1H-indene-2-carboxamido)benzoic acid]
[1]
  inhibition at 10 µM: ~55%
  inhibition at 30 µM: ~75%
  inhibition at 100 µM: ~100%
[2]; no concentration stated
  Tox. Rank (4 = non-toxic): 4

## COc1cc2nc(C(=O)Nc3ccccc3C(=O)O)[nH]c2cc1OC [FT127, 2-(5,6-Dimethoxy-1H-benzo[d]imidazole-2-carboxamido)benzoic acid]
[1]
  inhibition at 10 µM: 0%
  inhibition at 30 µM: 0%
  inhibition at 100 µM: ~50%
[2]; no concentration stated
  Tox. Rank (4 = non-toxic): 4

## COc1cc2c(cc1OC)S(=O)(=O)C(C(=O)Nc1ccccc1C(=O)O)=C2 [FT128, 2-(1,1-Dioxo-5,6-dimethoxybenzo[b]thiophene-2-carboxamido)benzoic acid]
[1]
  inhibition at 10 µM: ~20%
  inhibition at 30 µM: ~20%
  inhibition at 100 µM: ~40%
[2]
  Cell condition observed (sick, dead, some death, cells elongated): (some death)
[2]; @100 uM
  Tox. Rank (4 = non-toxic): 3@100 uM

## COc1cc2c(cc1OC)CCC(C(=O)Nc1ccccc1C(=O)O)=C2 [FT129, 2-(6,7-Dimethoxy-1,2-dihydronaphthalene-3-carboxamido)benzoic acid]
[1]
  inhibition at 10 µM: ~10%
  inhibition at 30 µM: ~75%
[2]
  Cell condition observed (sick, dead, some death, cells elongated): dead
[2]; @30 uM
  Tox. Rank (4 = non-toxic): 2@30 uM
[2]; @100 uM
  Tox. Rank (4 = non-toxic): 1@100 uM

## COc1cc2c(cc1OC)CC(C(=O)Nc1ccccc1C(=O)O)CC2 (stereo not drawn) [FT130, 2-(6,7-Dimethoxy-1,2,3,4-tetrahydronaphthalene-3-carboxamido)benzoic acid]
[1]
  inhibition at 10 µM: ~10%
  inhibition at 30 µM: ~30%
  inhibition at 100 µM: ~50%
[2]; @100 uM
  Tox. Rank (4 = non-toxic): 2@100 uM

## COc1cc2c(cc1OC)/C(=C/C(=O)Nc1ccccc1C(=O)O)CNC2=O [FT131, (Z)-2-(2-(6,7-Dimethoxy-1-oxo-2,3-dihydroisoquinolin-4(1H)-ylidene)acetamido)benzoic acid]
[1]
  inhibition at 10 µM: ~20%
  inhibition at 30 µM: ~10%
  inhibition at 100 µM: ~10%
[2]; no concentration stated
  Tox. Rank (4 = non-toxic): 4

## COc1ccc(/C=C/c2nc3c(C(=O)O)cccc3o2)cc1OC [FT132, (E)-2-(3,4-Dimethoxystyryl)benzo[d]oxazole-4-carboxylic acid]
[1]
  inhibition at 10 µM: ~2%
  inhibition at 30 µM: ~75%
  inhibition at 100 µM: ~75%
[2]
  Cell condition observed (sick, dead, some death, cells elongated): (some death)
[2]; @100 uM
  Tox. Rank (4 = non-toxic): 3@100 uM
[3]; 30 μM in 0.1% DMSO
  Compound precipitated during assay: ppt
[3]; 100 μM in 0.1% DMSO
  Compound precipitated during assay: ppt
